Experiment: Response of test reagent pools to osmolality, conductivity and pH adjusters
Format: physicochemical
Experimental: Assays were performed to characterize the response of the test reagents according to Table 2 to adjustments targeting changes to the pH, osmolality and conductivity of the reagent test pools.
Each of the test pools were adjusted for osmolality and conductivity with different chemicals, for example, sodium chloride, sodium sulfate, potassium sulfate, potassium bisulfate, imidazole and sodium phosphate monobasic. Adjusting for osmolality or conductivity parameters impacts all three parameters of pH, conductivity and osmolality.
Variation of pH, conductivity and osmolality was observed by adding increasing amounts of each adjuster to a test reagent pool. Amounts of each adjuster to achieve target midpoint were established. The target pH, osmolality and conductivity were pH 7.02-7.20, target osmolality 315-360 mOsm/Kg, and target conductivity 19.05-20.00 mS/cm.
All pH, conductivity and osmolality adjusters functioned as expected with no precipitation.

[1] = pH adjuster added to working concentration reagent
[2] = osmolality and conductivity adjuster added to working concentration reagent

| SMILES | Osmolality change per gram of adjuster [1] | ▴ Conductivity [1] | ▴ pH/gm [1] | ▴ Conductivity [2] | ▴ Osmolality [2] | ▴ pH/gm [2] |
| --- | --- | --- | --- | --- | --- | --- |
| Cl [6N Hydrochloric Acid] | +7.0 mOsm/kg/gm | +0.33 mS/cm/gm | −0.16 | – | – | – |
| [Na+].[OH-] [50% Sodium Hydroxide] | +13.7 mOsm/kg/gm | +0.38 mS/cm/gm | +0.39 | – | – | – |
| c1c[nH]cn1 [Imidazole] | +24.9 mOsm/kg/gm | +0.28 mS/cm/gm | +0.21 | – | – | – |
| O=S(=O)([O-])[O-].[K+].[K+] [Potassium Sulfate] | – | – | – | +1.07 mS/cm/gm | +11.9 mOsm/kg/gm | +0.02 |
| [Cl-].[Na+] [Sodium Chloride] | – | – | – | +1.61 mS/cm/gm | +29.2 mOsm/kg/gm | 0.00 |
| O=P([O-])(O)O.[Na+] [Sodium Phosphate Mono] | +12.0 mOsm/kg/gm | +0.46 mS/cm/gm | −0.14 | – | – | – |
| O=S(=O)([O-])[O-].[Na+].[Na+] [Sodium Sulfate] | – | – | – | +0.88 mS/cm/gm | +14.1 mOsm/kg/gm | +0.01 |
